Test: Measurement of surface tension and critical micellar concentrations (rising drop tensiometer)
Format: physicochemical
Settings: for CMC: critical micellar concentration; for γcmc: surface tension at the CMC, rising drop
Description: Measurement of Surface Tension and Critical Micellar Concentrations The tensiometric measurements were carried out with a drop tensiometer operating by the method of the rising drop ([…] tensiometer, I.T. CONCEPT).

Molecule	CMC	γcmc
CCCCCCCCCCCCOS(=O)(=O)[O-].[Na+] [SDS (C12), reference compound]	8000 µM	30.0 mN/m
betainylaminooctadecane mesylate [Amides C18:0]	140 µM	36.0 mN/m
octadecyl betaine mesylate [Esters C18:0]	800 µM	37.2 mN/m
